Test results as given in publication PMC4710522, “A Novel Triazolopyridine-Based Spleen Tyrosine Kinase Inhibitor That Arrests Joint Inflammation” (PLoS ONE, 2016).
pIC50: −log10 of the molar value.

How the values were obtained:
Assay in all cases: SelectScreen kinase assay
Assay type in all cases: biochemical
[1] = target: T1, MST1_h (Homo sapiens, UniProt Q13043); conditions: KM ATP, read-out: % control
T1 construct: purchased Life Technologies (Invitrogen) SelectScreen, Z'-LYTE / Adapta
In short: (§1)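 With compound constant at 3 µM, kinase activity was determined by Z'-Lyte or Adapta at KM ATP or at 10 or 100 µM ATP. Uninhibited DMSO-only wells defined 100% control.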

[2] = target: T2, Rse_h (Homo sapiens, UniProt Q06418); conditions: KM ATP, read-out: % control
T2 construct: purchased Life Technologies (Invitrogen) SelectScreen, Z'-LYTE / Adapta
T2 sequence (Q06418 41-890): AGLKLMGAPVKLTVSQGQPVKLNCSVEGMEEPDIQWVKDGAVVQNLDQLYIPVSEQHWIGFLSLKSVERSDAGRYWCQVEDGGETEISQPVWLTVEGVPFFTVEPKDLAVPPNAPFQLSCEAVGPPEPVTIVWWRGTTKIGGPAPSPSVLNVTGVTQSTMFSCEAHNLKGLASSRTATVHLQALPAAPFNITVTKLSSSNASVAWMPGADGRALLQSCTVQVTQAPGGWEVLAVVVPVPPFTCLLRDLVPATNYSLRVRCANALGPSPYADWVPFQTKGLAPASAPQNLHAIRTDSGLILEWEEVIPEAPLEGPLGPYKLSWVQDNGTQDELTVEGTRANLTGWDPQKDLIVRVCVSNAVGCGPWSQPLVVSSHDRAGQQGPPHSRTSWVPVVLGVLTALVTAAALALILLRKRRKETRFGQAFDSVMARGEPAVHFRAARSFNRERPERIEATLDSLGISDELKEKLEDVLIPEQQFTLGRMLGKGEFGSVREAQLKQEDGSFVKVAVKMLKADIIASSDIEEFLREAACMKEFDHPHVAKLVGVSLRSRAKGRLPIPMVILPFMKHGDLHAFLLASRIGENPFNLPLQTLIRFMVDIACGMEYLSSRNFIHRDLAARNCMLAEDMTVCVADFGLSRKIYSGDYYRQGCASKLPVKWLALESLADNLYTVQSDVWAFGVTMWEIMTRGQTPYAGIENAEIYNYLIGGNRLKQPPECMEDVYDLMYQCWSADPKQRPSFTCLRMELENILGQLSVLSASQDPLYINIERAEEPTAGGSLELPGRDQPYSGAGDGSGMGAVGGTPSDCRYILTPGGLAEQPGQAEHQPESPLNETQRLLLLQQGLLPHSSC
In short: as §1

[3] = target: T3, CaMKI-delta_h (Homo sapiens, UniProt Q8IU85); conditions: KM ATP, read-out: % control
T3 construct: purchased Life Technologies (Invitrogen) SelectScreen, Z'-LYTE / Adapta
In short: as §1

[4] = target: T4, Gck_h (Homo sapiens, UniProt Q12851); conditions: KM ATP, read-out: % control
T4 construct: purchased Life Technologies (Invitrogen) SelectScreen, Z'-LYTE / Adapta
In short: as §1

[5] = target: T5, BRAF (Homo sapiens, UniProt P15056); conditions: 100 µM ATP, read-out: % control
T5 construct: purchased Life Technologies (Invitrogen) SelectScreen, Z'-LYTE / Adapta
In short: as §1

[6] = target: T6, p38-gamma_h (Homo sapiens, UniProt P53778); conditions: KM ATP, read-out: % control
T6 construct: purchased Life Technologies (Invitrogen) SelectScreen, Z'-LYTE / Adapta
T6 sequence (P53778 whole entry): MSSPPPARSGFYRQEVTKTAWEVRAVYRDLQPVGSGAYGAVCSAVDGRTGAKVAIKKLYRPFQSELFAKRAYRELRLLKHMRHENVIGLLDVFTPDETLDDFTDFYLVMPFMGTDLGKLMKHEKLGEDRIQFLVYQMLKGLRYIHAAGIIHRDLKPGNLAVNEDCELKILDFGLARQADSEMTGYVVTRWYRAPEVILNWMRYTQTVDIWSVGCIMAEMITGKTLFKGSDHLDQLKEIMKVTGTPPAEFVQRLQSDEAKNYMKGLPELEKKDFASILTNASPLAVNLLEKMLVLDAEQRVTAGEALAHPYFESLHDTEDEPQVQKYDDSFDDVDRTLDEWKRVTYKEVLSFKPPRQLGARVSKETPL
In short: as §1

[7] = target: T7, PTK5_h (Homo sapiens, UniProt P42685); conditions: KM ATP, read-out: % control
T7 construct: purchased Life Technologies (Invitrogen) SelectScreen, Z'-LYTE / Adapta
In short: as §1

[8] = target: T8, CK1-alpha1_h (Homo sapiens, UniProt P48729); conditions: KM ATP, read-out: % control
T8 construct: purchased Life Technologies (Invitrogen) SelectScreen, Z'-LYTE / Adapta
In short: as §1

[9] = target: T9, CaMKII-beta_h (Homo sapiens, UniProt Q13554); conditions: KM ATP, read-out: % control
T9 construct: purchased Life Technologies (Invitrogen) SelectScreen, Z'-LYTE / Adapta
In short: as §1

[10] = target: T10, Pim-2_h (Homo sapiens, UniProt Q9P1W9); conditions: KM ATP, read-out: % control
T10 construct: purchased Life Technologies (Invitrogen) SelectScreen, Z'-LYTE / Adapta
In short: as §1

[11] = target: T11, EphA2_h (Homo sapiens, UniProt P29317); conditions: KM ATP, read-out: % control
T11 construct: purchased Life Technologies (Invitrogen) SelectScreen, Z'-LYTE / Adapta
In short: as §1

[12] = target: T12, MRCK-alpha_h (Homo sapiens, UniProt Q5VT25); conditions: KM ATP, read-out: % control
T12 construct: purchased Life Technologies (Invitrogen) SelectScreen, Z'-LYTE / Adapta
In short: as §1

[13] = target: T13, MSK1_h (Homo sapiens, UniProt O75582); conditions: KM ATP, read-out: % control
T13 construct: purchased Life Technologies (Invitrogen) SelectScreen, Z'-LYTE / Adapta
In short: as §1

[14] = target: T14, JNK2-alpha2_h (Homo sapiens, UniProt P45984); conditions: 100 µM ATP, read-out: % control
T14 construct: purchased Life Technologies (Invitrogen) SelectScreen, Z'-LYTE / Adapta
In short: as §1

[15] = target: T15, IRAK1_h (Homo sapiens, UniProt P51617); conditions: KM ATP, read-out: % control
T15 construct: purchased Life Technologies (Invitrogen) SelectScreen, Z'-LYTE / Adapta
In short: as §1

[16] = target: T16, FAK_h (Homo sapiens, UniProt Q05397); conditions: KM ATP, read-out: % control
T16 construct: purchased Life Technologies (Invitrogen) SelectScreen, Z'-LYTE / Adapta
In short: as §1

[17] = target: T17, ALK4_h (Homo sapiens, UniProt P36896); conditions: KM ATP, read-out: % control
T17 construct: purchased Life Technologies (Invitrogen) SelectScreen, Z'-LYTE / Adapta
In short: as §1

[18] = target: T18, Flt1_h (Homo sapiens, UniProt P17948); conditions: KM ATP, read-out: % control
T18 construct: purchased Life Technologies (Invitrogen) SelectScreen, Z'-LYTE / Adapta
In short: as §1

[19] = target: T19, PTK2B_h (Homo sapiens, UniProt Q14289); conditions: KM ATP, read-out: % control
T19 construct: purchased Life Technologies (Invitrogen) SelectScreen, Z'-LYTE / Adapta
T19 sequence (Q14289 whole entry): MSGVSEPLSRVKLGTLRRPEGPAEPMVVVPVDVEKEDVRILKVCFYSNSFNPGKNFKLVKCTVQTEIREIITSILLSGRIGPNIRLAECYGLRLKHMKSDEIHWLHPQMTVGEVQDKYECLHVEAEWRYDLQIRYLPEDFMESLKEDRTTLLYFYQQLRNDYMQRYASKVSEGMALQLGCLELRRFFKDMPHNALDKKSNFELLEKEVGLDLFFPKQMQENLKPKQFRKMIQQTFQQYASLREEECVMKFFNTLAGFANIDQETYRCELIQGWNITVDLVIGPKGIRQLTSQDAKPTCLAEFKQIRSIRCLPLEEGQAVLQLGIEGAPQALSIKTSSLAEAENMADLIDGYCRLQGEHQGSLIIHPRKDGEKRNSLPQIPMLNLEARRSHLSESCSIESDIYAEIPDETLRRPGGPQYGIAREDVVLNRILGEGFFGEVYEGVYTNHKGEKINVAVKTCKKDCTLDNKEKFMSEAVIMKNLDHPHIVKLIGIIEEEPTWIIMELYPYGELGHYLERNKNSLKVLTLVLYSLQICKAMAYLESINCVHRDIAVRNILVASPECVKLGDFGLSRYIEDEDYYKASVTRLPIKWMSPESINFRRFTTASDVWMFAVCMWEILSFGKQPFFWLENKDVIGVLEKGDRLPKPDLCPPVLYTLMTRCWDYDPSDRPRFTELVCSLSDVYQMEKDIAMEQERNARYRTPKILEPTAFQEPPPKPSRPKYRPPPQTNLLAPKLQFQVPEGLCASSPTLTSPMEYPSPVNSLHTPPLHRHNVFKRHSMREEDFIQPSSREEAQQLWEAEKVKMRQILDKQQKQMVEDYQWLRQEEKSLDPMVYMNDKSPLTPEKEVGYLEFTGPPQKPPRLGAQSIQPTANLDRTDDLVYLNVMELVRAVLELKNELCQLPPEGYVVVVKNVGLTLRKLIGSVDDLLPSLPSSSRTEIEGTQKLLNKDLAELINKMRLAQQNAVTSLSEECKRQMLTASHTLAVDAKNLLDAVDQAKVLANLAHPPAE
In short: as §1

[20] = target: T20, p70S6K_h (Homo sapiens, UniProt P23443); conditions: KM ATP, read-out: % control
T20 construct: purchased Life Technologies (Invitrogen) SelectScreen, Z'-LYTE / Adapta
T20 sequence (P23443 whole entry): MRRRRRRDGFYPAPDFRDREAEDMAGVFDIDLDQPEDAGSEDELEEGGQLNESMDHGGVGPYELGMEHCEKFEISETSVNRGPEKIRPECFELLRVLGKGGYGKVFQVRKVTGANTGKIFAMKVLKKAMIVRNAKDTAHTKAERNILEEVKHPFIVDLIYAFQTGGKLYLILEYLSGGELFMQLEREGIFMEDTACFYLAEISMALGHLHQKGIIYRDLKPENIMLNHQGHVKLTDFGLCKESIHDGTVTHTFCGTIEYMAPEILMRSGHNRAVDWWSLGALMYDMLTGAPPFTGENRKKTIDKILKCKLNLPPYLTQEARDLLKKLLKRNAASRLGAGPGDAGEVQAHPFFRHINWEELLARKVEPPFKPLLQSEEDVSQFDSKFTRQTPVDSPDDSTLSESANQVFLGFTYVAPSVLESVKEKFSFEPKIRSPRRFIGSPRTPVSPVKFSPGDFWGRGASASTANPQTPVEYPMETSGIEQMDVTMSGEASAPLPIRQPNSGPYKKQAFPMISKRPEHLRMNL
In short: as §1

[21] = target: T21, BRK_h (Homo sapiens, UniProt Q13882); conditions: KM ATP, read-out: % control
T21 construct: purchased Life Technologies (Invitrogen) SelectScreen, Z'-LYTE / Adapta
T21 sequence (Q13882 whole entry): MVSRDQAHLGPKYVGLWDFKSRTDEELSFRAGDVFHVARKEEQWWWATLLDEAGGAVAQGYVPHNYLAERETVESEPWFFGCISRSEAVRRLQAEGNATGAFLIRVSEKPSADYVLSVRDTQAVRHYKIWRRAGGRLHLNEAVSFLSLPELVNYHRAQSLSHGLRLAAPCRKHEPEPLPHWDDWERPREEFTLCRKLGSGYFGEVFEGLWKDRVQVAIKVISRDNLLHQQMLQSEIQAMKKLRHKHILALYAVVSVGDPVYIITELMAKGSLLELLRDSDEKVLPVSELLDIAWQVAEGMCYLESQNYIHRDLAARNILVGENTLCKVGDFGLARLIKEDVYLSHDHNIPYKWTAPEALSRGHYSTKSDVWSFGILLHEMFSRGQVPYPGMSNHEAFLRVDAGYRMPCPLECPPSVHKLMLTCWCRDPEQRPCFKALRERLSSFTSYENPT
In short: as §1

[22] = target: T22, PKC-mu_h (Homo sapiens, UniProt Q15139); conditions: KM ATP, read-out: % control
T22 construct: purchased Life Technologies (Invitrogen) SelectScreen, Z'-LYTE / Adapta
T22 sequence (Q15139 whole entry): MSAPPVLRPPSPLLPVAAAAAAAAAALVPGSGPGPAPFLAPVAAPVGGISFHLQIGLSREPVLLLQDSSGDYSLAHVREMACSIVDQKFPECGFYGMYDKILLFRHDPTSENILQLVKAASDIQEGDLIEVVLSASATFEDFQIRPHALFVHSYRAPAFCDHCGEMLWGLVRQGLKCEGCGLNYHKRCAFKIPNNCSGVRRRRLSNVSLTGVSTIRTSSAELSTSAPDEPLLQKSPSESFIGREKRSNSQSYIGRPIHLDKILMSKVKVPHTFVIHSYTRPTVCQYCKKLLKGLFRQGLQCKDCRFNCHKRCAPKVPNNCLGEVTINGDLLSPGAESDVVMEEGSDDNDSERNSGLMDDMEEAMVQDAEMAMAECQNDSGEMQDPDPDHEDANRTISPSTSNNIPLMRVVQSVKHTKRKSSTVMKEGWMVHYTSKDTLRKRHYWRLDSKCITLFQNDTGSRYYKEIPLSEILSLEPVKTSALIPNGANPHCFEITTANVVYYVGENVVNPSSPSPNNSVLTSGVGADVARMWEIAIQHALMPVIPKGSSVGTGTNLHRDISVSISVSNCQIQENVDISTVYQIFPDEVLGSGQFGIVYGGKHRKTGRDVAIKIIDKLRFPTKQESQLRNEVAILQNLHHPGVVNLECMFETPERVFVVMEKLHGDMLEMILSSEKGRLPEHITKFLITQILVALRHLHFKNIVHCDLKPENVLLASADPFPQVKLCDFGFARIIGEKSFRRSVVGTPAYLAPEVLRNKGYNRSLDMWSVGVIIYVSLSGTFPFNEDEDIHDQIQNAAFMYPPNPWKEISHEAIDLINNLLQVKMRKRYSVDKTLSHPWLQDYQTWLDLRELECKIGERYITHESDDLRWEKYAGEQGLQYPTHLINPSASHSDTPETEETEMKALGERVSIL
In short: as §1

[23] = target: T23, CK2_h (Homo sapiens, UniProt P68400); conditions: KM ATP, read-out: % control
T23 construct: purchased Life Technologies (Invitrogen) SelectScreen, Z'-LYTE / Adapta
In short: as §1

[24] = target: T24, IKBKE_h (Homo sapiens, UniProt Q14164); conditions: KM ATP, read-out: % control
T24 construct: purchased Life Technologies (Invitrogen) SelectScreen, Z'-LYTE / Adapta
In short: as §1

[25] = target: T25, CaMKII-alpha_h (Homo sapiens, UniProt Q9UQM7); conditions: KM ATP, read-out: % control
T25 construct: purchased Life Technologies (Invitrogen) SelectScreen, Z'-LYTE / Adapta
In short: as §1

[26] = target: T26, EphA4_h (Homo sapiens, UniProt P54764); conditions: KM ATP, read-out: % control
T26 construct: purchased Life Technologies (Invitrogen) SelectScreen, Z'-LYTE / Adapta
In short: as §1

[27] = target: T27, NEK1_h (Homo sapiens, UniProt Q96PY6); conditions: KM ATP, read-out: % control
T27 construct: purchased Life Technologies (Invitrogen) SelectScreen, Z'-LYTE / Adapta
In short: as §1

[28] = target: T28, LYN-B_h (Homo sapiens, UniProt P07948); conditions: KM ATP, read-out: % control
T28 construct: purchased Life Technologies (Invitrogen) SelectScreen, Z'-LYTE / Adapta
In short: as §1

[29] = target: T29, Abl_Y253F_h (Homo sapiens, UniProt P00519, Y253F); conditions: KM ATP, read-out: % control
T29 construct: purchased Life Technologies (Invitrogen) SelectScreen, Z'-LYTE / Adapta
In short: as §1

[30] = target: cKit_h (Homo sapiens, UniProt P10721)
cKit_h, sequence (P10721 26-976): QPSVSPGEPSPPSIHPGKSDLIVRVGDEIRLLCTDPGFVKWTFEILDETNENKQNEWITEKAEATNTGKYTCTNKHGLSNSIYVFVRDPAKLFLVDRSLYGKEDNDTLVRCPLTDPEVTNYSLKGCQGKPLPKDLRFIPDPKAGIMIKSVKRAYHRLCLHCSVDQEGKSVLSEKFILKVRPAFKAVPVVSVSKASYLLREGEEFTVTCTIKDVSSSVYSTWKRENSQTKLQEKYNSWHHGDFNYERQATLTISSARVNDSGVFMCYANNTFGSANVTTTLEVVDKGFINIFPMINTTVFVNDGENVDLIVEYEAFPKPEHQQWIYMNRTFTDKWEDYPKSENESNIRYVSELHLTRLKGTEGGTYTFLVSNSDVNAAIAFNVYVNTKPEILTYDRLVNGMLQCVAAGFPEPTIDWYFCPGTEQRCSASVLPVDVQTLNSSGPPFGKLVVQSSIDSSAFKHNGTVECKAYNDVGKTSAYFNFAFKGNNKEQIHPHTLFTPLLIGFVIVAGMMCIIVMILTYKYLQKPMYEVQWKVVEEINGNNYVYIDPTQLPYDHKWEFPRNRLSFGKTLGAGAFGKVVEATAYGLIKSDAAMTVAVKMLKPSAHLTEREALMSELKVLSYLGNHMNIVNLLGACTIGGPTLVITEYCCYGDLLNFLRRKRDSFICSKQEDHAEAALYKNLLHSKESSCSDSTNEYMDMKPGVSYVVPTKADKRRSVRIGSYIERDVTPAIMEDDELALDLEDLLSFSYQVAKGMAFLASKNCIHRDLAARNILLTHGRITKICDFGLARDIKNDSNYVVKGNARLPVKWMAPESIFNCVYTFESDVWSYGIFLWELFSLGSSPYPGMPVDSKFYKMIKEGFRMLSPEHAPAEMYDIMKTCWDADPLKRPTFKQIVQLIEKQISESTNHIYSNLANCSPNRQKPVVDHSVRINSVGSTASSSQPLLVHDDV
In short: as §1

[31] = target: T30, EphA5_h (Homo sapiens, UniProt P54756); conditions: KM ATP, read-out: % control
T30 construct: purchased Life Technologies (Invitrogen) SelectScreen, Z'-LYTE / Adapta
In short: as §1

[32] = target: T31, Ret_Y791F_h (Homo sapiens, UniProt P07949, Y791F); conditions: KM ATP, read-out: % control
T31 construct: purchased Life Technologies (Invitrogen) SelectScreen, Z'-LYTE / Adapta
In short: as §1

[33] = target: T32, MELK_h (Homo sapiens, UniProt Q14680); conditions: KM ATP, read-out: % control
T32 construct: purchased Life Technologies (Invitrogen) SelectScreen, Z'-LYTE / Adapta
In short: as §1

[34] = target: T33, SGK3_h (Homo sapiens, UniProt Q96BR1); conditions: KM ATP, read-out: % control
T33 construct: purchased Life Technologies (Invitrogen) SelectScreen, Z'-LYTE / Adapta
In short: as §1

c1cc(CC2CCOCC2)n2nc(Nc3ccc4c(NC5CCOCC5)n[nH]c4c3)nc2c1 [CC-509, [3-(2H-3,4,5,6-tetrahydropyran-4-ylamino)(1H-indazol-6-yl)][5-(2H-3,4,5,6-tetrahydropyran-4-ylmethyl)(2H-1,2,4-triazolo[1,5-a]pyridin-2-yl)]amine]
remaining activity at 3 µM [1]: 65% | remaining activity at 3 µM [2]: 53% | remaining activity at 3 µM [3]: 86% | remaining activity at 3 µM [4]: 57% | remaining activity at 3 µM [5]: 83% | remaining activity at 3 µM [6]: 95% | remaining activity at 3 µM [7]: 86% | remaining activity at 3 µM [8]: 88% | remaining activity at 3 µM [9]: 104% | remaining activity at 3 µM [10]: 99% | remaining activity at 3 µM [11]: 82% | remaining activity at 3 µM [12]: 91% | remaining activity at 3 µM [13]: 94% | remaining activity at 3 µM [14]: 88% | remaining activity at 3 µM [15]: 20% | remaining activity at 3 µM [16]: 43% | remaining activity at 3 µM [17]: 107% | remaining activity at 3 µM [18]: 55% | remaining activity at 3 µM [19]: 50% | remaining activity at 3 µM [20]: 89% | remaining activity at 3 µM [21]: 87% | remaining activity at 3 µM [22]: 34% | remaining activity at 3 µM [23]: 94% | remaining activity at 3 µM [24]: 67% | remaining activity at 3 µM [25]: 80% | remaining activity at 3 µM [26]: 76% | remaining activity at 3 µM [27]: 73% | remaining activity at 3 µM [28]: 39% | remaining activity at 3 µM [29]: 22% | remaining activity at 3 µM ([30]; 3 µM, KM ATP, read-out: % control): 66% | pIC50 ([30]; 10-point dose-response, commercial vendor): 4.96 | remaining activity at 3 µM [31]: 89% | remaining activity at 3 µM [32]: 18% | remaining activity at 3 µM [33]: 10% | remaining activity at 3 µM [34]: 87%
